What was measured:
Format in all cases: physicochemical
[1] = Introduction of compounds into nanosheets, absorbance of supernatant after centrifugation; conditions: for introduction amount relative to the weight of the nanosheets: Examples 4-8; for introduction amount relative to the weight of the nanosheets / Weight of introduced compound/weight of nanosheets: crosslinked β-cyclodextrin nanosheets; for Weight of introduced compound/weight of nanosheets: Table 1; for Concentration of introduced compound before introduction: in nanosheet dispersion, defined in consideration of dilution with moisture in the dispersion; for Concentration of introduced compound before introduction / Concentration of introduced compound after introduction: nanosheets 43 mg/mL (Examples 4-6) or 17 mg/mL (Examples 7-8); for amount of compound introduced into the nanosheets (reduction in concentration before and after introduction): nanosheets 43 mg/mL (Examples 4-6) or 17 mg/mL (Example 8); for Concentration of introduced compound after introduction: supernatant after shaking at room temperature 48 hours and centrifugation, absorbance
Procedure: (§1) 700 Microliters of an aqueous solution (300 μg/mL) of 5-fluorouracil was added to 500 mg of the nanosheet dispersion-1 obtained in Example 1, and the mixture was shaken at room temperature for 48 hours. The nanosheet dispersion having introduced thereinto 5-fluorouracil was centrifuged (at 12,000 rpm for 10 minutes), and the supernatant liquid was collected.
The introduction amount of 5-fluorouracil was determined by the same process as that of Example 4 except that a concentration-absorbance calibration curve was produced at a predetermined wavelength (λ=270 nm).
as §1, with “(100” for “(300”, “hydrocortisone” for “5-fluorouracil”
The introduction amount of hydrocortisone was determined by the same process as that of Example 4 except that a concentration-absorbance calibration curve was produced at a predetermined wavelength (λ250 nm).
as §1, with “500” for “700”, “(30” for “(300”, “betamethasone” for “5-fluorouracil”, “100” for “500”
The introduction amount of betamethasone was determined by the same process as that of Example 4 except that a concentration-absorbance calibration curve was produced at a predetermined wavelength (λ=250 nm).
as §1, with “500” for “700”, “(30” for “(300”, “menadione” for “5-fluorouracil”, “100” for “500”
The introduction amount of menadione was determined by the same process as that of Example 4 except that a concentration-absorbance calibration curve was produced at a predetermined wavelength (λ=250 nm).

[2] = Introduction of molecules into crosslinked body of porous microstructural body (UV-visible, supernatant); conditions: adsorption from aqueous dispersion; Example 10
Procedure: A low-molecular weight compound was added, and caused to adsorb, to the aqueous dispersion of the porous γ-PPG4k-Plate crosslinked body, and then the porous γ-PPG4k-Plate crosslinked body was sedimented by centrifugation. The concentration of the low-molecular weight compound present in the supernatant liquid obtained at that time was determined by a UV-visible spectral method. Thus, the amount of the low-molecular weight compound adsorbing to the porous γ-PPG4k-Plate crosslinked body was determined.

[3] = Introduction of molecules into porous nanosheet crosslinked body (UV-visible, supernatant); conditions: adsorption from aqueous dispersion; Example 9
Procedure: A low-molecular weight compound was added, and caused to adsorb, to the aqueous dispersion of the porous γ-plu108-NS crosslinked body, and then the porous γ-plu108-NS crosslinked body was sedimented by centrifugation. The concentration of the low-molecular weight compound present in the supernatant liquid obtained at that time was determined by a UV-visible spectral method. Thus, the amount of the low-molecular weight compound adsorbing to the porous γ-plu108-NS crosslinked body was determined.

[4] = Introduction of rhodamine B into uncrosslinked nanosheets (fluorescence microscope); conditions: rhodamine B 1,000 μg/mL aqueous solution, shaken room temperature 24 hours
Procedure: 100 Microliters of an aqueous solution (1,000 μg/mL) of rhodamine B was added to 90 mL of the uncrosslinked nanosheet dispersion (sample IT-142) obtained in Comparative Example 1, and the mixture was shaken at room temperature for 24 hours. […] The results are shown in FIG. 11(A) and FIG. 11(B), respectively. The crystal structures of nanosheets were able to be observed with the phase-contrast microscope.

[5] = Introduction of rhodamine B into crosslinked nanosheets (fluorescence microscope); conditions: rhodamine B 100 μg/mL aqueous solution, shaken room temperature 24 hours, diluted fivefold
Procedure: 900 Microliters of an aqueous solution (100 μg/mL) of rhodamine B was added to 50 mg of the nanosheet dispersion-1 (sample IT-162) obtained in Example 1, and the mixture was shaken at room temperature for 24 hours. […] The results are shown in FIG. 10(A) and FIG. 10(B), respectively. The crystal structures of nanosheets were able to be observed with the phase-contrast microscope.

Row | SMILES | introduction amount relative to the weight of the nanosheets [1] [wt %] | Weight of introduced compound/weight of nanosheets [1] [%] | Concentration of introduced compound before introduction [1] [µg/mL] | amount of compound introduced into the nanosheets (reduction in concentration before and after introduction) [1] [µg/mL] | Concentration of introduced compound after introduction [1] [µg/mL] | introduction into the porous γ-PPG4k-Plate crosslinked body [2] | further results
1 | O=c1[nH]cc(F)c(=O)[nH]1 [5-Fluorouracil, 5-fluorouracil] | 0.10 | 0.10 | 183 | 45 | 138 | – | –
2 | O=c1ccc2ccccc2o1 [coumarin] | – | – | – | – | – | – | ratio of the weight of the low-molecular weight compound to the total sum of the weights of the compound and the porous γ-PPG4k-Plate crosslinked body [2]: 0.6 wt %; ratio of the weight of the low-molecular weight compound to the total sum of the weights of the compound and the porous γ-plu108-NS crosslinked body [3]: 0.5 wt %
3 | CCCCC/C=C\C/C=C\CCCCCCCC(=O)O [linoleic acid] | – | – | – | – | – | – | ratio of the weight of the low-molecular weight compound to the total sum of the weights of the compound and the porous γ-PPG4k-Plate crosslinked body [2]: 0.9 wt %; ratio of the weight of the low-molecular weight compound to the total sum of the weights of the compound and the porous γ-plu108-NS crosslinked body [3]: 5.3 wt %
4 | O=C(O)CCCC[C@@H]1SC[C@@H]2NC(=O)N[C@@H]21 [biotin] | – | – | – | – | – | not introduced | –
5 | CC1=CC(=O)c2ccccc2C1=O [Menadione, menadione] | 0.09 | 0.09 | 25 | 15 | 10 | – | –
6 | C[C@]12CCC(=O)C=C1CC[C@@H]1[C@@H]2[C@@H](O)C[C@@]2(C)[C@H]1CC[C@]2(O)C(=O)CO [Hydrocortisone, hydrocortisone] | 0.08 | 0.08 | 61 | 35 | 26 | – | –

More lines, main results first:

Row | introduction amount relative to the weight of the nanosheets [1] [wt %] | Weight of introduced compound/weight of nanosheets [1] [%] | Concentration of introduced compound before introduction [1] [µg/mL] | amount of compound introduced into the nanosheets (reduction in concentration before and after introduction) [1] [µg/mL] | Concentration of introduced compound after introduction [1] [µg/mL] | introduction into the porous γ-PPG4k-Plate crosslinked body [2] | SMILES | further results
7 | – | – | – | – | – | not introduced | CCN[C@H]1C[C@H](C)S(=O)(=O)c2sc(S(N)(=O)=O)cc21 [dorzolamide] | –
8 | – | – | – | – | – | not introduced | O=C(O)c1cccnc1 [nicotinic acid] | –
9 | – | – | – | – | – | not introduced | CCN(CC)c1ccc2c(-c3ccccc3C(=O)O)c3ccc(=[N+](CC)CC)cc-3oc2c1.[Cl-] [rhodamine B] | fluorescent coloring in the crystal structures (rhodamine B introduction) [4]: almost no fluorescent coloring was observed; fluorescent coloring in the crystal structures (rhodamine B introduction) [5]: fluorescent coloring was observed

Source: US20240299303A1, “NANOSTRUCTURE OR MICROSTRUCTURE AND METHOD FOR PRODUCING SAME” (The University of Tokyo, priority 2021, published 2024)
